The record followed here is article PMC12426935, “On-Cell Saturation Transfer Difference NMR Spectroscopy on Ion Channels: Characterizing Negative Allosteric Modulator Binding Interactions of P2X7” (Journal of the American Chemical Society, 2025).

Where two headings read alike, the source gives them in different places.

For one assay, the target named is T1, rat P2X7 (rP2X7) (Rattus norvegicus, UniProt Q64663).
T1 construct: expressed in transfected cells
T1 sequence (Q64663 1-595): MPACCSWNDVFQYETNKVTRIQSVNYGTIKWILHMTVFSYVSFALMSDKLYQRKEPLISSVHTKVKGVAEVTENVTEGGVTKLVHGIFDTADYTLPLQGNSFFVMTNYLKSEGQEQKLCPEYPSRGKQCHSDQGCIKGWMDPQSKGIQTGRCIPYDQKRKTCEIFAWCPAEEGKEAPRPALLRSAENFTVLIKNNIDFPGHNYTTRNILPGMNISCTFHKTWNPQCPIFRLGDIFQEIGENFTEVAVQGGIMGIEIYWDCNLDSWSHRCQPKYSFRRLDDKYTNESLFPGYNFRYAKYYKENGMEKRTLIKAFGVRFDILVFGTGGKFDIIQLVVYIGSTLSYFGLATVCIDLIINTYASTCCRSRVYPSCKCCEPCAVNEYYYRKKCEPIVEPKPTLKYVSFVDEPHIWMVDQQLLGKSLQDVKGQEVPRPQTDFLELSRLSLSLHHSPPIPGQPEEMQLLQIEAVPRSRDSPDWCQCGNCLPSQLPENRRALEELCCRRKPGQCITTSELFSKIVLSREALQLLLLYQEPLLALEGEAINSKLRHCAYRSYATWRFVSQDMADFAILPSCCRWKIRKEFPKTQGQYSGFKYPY
The experiment in a line: fura-2 intracellular calcium assay on HEK-293 stable cell line expressing rat P2X7. In kind it is cell-based. To be noted: Rat P2X7 (Table 1), n = 3. The procedure:
(§1) Genetically edited HEK-293 cells lacking P2Y2 receptors were used to generate stable cell lines expressing human P2X7 (hP2X7), mouse P2X7 (mP2X7), rat P2X7 (rP2X7), or mutants of the hP2X7 NAM site (F88A, M105A, and F103A). Transfection was performed using lipofectamine 2000 (Fisher Scientific), and cells were subjected to Geneticin (800 μg/mL) selection for 2–3 weeks. This was followed by single cell cloning by limiting dilution in 96-well plates. Individual clones were selected for further study based on ATP-induced TO-PRO-3 uptake on a BD Cytoflex flow cytometer. Cell lines were maintained in DMEM:F12 media supplemented with 10% fetal bovine serum (PanBiotech), penicillin and streptomycin (Fisher Scientific) and kept in a humidified incubator with 5% CO2. Stable P2X7-expressing cells were kept under Geneticin selection at a concentration of 400 μg/mL. Passaging was performed twice weekly using 0.25% Trypsin-EDTA (Fisher Scientific).
(§2) P2X7 responses were measured by monitoring intracellular calcium responses using fura-2AM loaded cells. Cells were plated at 2–2.5 × 10^4 cells/well the day before experiments in 96-well plates (NUNC) coated with 50 μg/mL poly-D-lysine (Merck Millipore). A loading buffer containing 2 μM fura-2AM (HelloBio) and 250 μM sulfinpyrazone (Merck Millipore) in a low divalent buffer (145 mM NaCl, 5 mM KCl, 0.2 mM CaCl2, 10 mM HEPES, 13 mM glucose, pH 7.3) was added to cells for 45 min at 37 °C. After loading, the buffer was removed and replaced with calcium-containing extracellular solution (145 mM NaCl, 5 mM KCl, 2 mM CaCl2, 10 mM HEPES, 13 mM glucose, pH 7.3). Responses were measured using a Flexstation 3 plate reader (Molecular Devices) with dual excitation wavelengths of 340 and 380 nm and single emission wavelength of 510 nm. The sample interval was 3.5 s, and each well was recorded for 180 s. Fura-2 ratios were calculated in Softmax Pro v5.4; zero baseline was applied, and responses were measured as normalized area under the curve (AUC). Dose inhibition curves were plotted using GraphPad Prism v6 nonlinear regression (three parameter fit) and log IC50 values reported.
(Calcium assays in cells follow changes in intracellular calcium, usually with a dye or a luminescent sensor.)

In another assay the target is T2, F88A hP2X7 (Homo sapiens, UniProt Q99572, F88A).
T2 sequence (Q99572 1-595 F88A): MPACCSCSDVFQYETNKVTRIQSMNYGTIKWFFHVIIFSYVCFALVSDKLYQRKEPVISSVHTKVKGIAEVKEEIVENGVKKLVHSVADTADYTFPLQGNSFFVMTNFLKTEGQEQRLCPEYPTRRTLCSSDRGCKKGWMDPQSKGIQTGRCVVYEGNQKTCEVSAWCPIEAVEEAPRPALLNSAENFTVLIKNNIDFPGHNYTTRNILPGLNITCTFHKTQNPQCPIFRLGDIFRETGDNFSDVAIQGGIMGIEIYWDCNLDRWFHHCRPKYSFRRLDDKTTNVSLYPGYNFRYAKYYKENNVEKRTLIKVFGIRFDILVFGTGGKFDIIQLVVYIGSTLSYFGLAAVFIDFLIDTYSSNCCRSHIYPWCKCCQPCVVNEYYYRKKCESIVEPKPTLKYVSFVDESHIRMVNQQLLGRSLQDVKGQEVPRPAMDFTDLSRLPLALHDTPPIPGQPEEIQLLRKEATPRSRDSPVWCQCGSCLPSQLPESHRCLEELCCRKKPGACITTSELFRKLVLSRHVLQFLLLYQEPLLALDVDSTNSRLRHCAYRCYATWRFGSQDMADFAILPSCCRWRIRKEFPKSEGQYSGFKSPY
The experiment in a line: fura-2 intracellular calcium assay on HEK-293 stable cell line expressing NAM-site mutant F88A hP2X7. The conditions noted are these: for IC50: n = 3. In kind it is cell-based. The procedure:
as §1, with “Transfection” for “Genetically edited HEK-293 cells lacking P2Y2 receptors were used to generate stable cell lines expressing human P2X7 (hP2X7), mouse P2X7 (mP2X7), rat P2X7 (rP2X7), or mutants of the hP2X7 NAM site (F88A, M105A, and F103A). Transfection”
as §2

Take `O=C(NCC1(N2CCN(c3ccccc3)CC2)CCOCC1)c1cccnc1Sc1ccccc1` [JNJ-47965567]: the IC50 (usually the point on the concentration scale where inhibition reaches its midpoint) on rat P2X7 (rP2X7) (log IC50 ± standard error, read-out: Log IC50 (converted)) was 0.0174 µM; on rat P2X7 (rP2X7) (mean in brackets, read-out: mean IC50), 0.0176 µM; on F88A hP2X7 (F88A hP2X7, agonist ATP, log IC50 ± standard error, read-out: Log IC50 (converted)), 0.121 µM; on F88A hP2X7 (F88A hP2X7, agonist ATP, mean in brackets, read-out: mean IC50), 0.125 µM; on F88A hP2X7 (F88A hP2X7, agonist BzATP, mean in brackets, read-out: mean IC50), 0.0538 µM. The “increase in IC50 at F88A relative to hP2X7” value on F88A hP2X7 (F88A hP2X7 vs hP2X7) is reported as 10 fold.
